The format of data set [1] is in vivo, human.
For a further data set, the target named is human CYP1A2 (Homo sapiens, UniProt P05177). Briefly: Phe inhibition of human CYP1A2, P450-Glo assay. It is filed as biochemical.
In data set [2] the test system is Salmonella strains TA100, TA 97a, TA98 and TA102. The note with it: cited from earlier work.
[3] abbreviates: [14C]-BaP metabolite in human plasma, 0-48 h, BaP + Phe dose, mean ± SD.
[4] abbreviates: [14C]-BaP metabolite in human plasma, 0-48 h, BaP only dose, mean ± SD.
Where [5] appears, read: [14C]-BaP metabolite in human plasma, BaP + Phe dose, mean ± SD.
Setting [6] is: [14C]-BaP metabolite in human plasma, BaP only dose, mean ± SD.

We go through six compounds from paper PMC10782561 (Chemico-biological interactions, 2023).

Read-outs that look alike come from different tables or passages of the source.

Chain of human CYP1A2 (P05177 whole entry): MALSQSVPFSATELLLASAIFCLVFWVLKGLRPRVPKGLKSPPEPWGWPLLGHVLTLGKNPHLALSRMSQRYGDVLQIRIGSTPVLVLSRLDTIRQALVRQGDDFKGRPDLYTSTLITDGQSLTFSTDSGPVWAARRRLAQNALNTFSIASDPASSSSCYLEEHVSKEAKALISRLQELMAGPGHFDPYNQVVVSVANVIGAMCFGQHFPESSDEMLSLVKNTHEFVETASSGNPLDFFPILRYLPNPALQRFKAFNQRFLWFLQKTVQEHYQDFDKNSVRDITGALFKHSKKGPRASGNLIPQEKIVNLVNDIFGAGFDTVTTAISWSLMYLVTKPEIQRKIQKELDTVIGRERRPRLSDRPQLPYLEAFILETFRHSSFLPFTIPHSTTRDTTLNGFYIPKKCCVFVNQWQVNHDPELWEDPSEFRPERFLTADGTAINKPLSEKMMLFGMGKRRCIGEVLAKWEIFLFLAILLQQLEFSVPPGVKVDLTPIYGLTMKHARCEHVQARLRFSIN

`O[C@H]1C=Cc2c(cc3ccc4cccc5ccc2c3c45)[C@@H]1O` (racemic) [7,8-dihydrodiol, (±) trans-benzo[a]pyrene-7,8-dihydrodiol]: in data set [1] (setting [3]), the AUC is 10.53 ± 9.26 fg BaP/mL×h. Moreover, the AUC in data set [1] (setting [4]) is on record as 28.04 ± 34.04 fg BaP/mL×h. Besides, in data set [1] (setting [5]), the “AUC(0,∞)” value turned out to be 10.53 ± 9.26 fg BaP/mL×h, the Cmax worked out at 2.54 ± 2.07 fg BaP/mL, the T1/2 was 2.25 ± 0.55 h and the Tmax is listed as 2.3 ± 1.2 h. In data set [1] (setting [6]), the “AUC(0,∞)” value is given as 28.04 ± 34.04 fg BaP/mL×h, the Cmax stood at 4.12 ± 3.04 fg BaP/mL, the T1/2 is reported as 4.72 ± 4.18 h and the Tmax is reported as 1.7 ± 0.8 h.

Turning to `Oc1ccc2ccc3c4ccccc4cc4ccc1c2c43` [3-OH], the AUC in data set [1] (setting [3]) was 5.90 ± 4.33 fg BaP/mL×h. Besides, in data set [1] (setting [4]), the AUC was found to be 9.99 ± 7.43 fg BaP/mL×h. In data set [1] (setting [5]), the “AUC(0,∞)” value is 5.90 ± 4.33 fg BaP/mL×h, the Cmax was determined as 2.00 ± 1.03 fg BaP/mL, the T1/2 came to 1.59 ± 0.36 h and the Tmax is 2.2 ± 0.8 h. Further, in data set [1] (setting [6]), the “AUC(0,∞)” value is reported as 9.99 ± 7.43 fg BaP/mL×h, the Cmax was 4.85 ± 3.31 fg BaP/mL, the T1/2 was 1.85 ± 0.56 h and the time to peak (Tmax) was determined as 1.7 ± 0.8 h.

In the case of `Oc1ccc2cc3ccc4cccc5ccc(c2c1)c3c45` [9-OH], the AUC in data set [1] (setting [3]) is 0.74 ± 0.82 fg BaP/mL×h. Further, the AUC in data set [1] (setting [4]) was 3.40 ± 3.83 fg BaP/mL×h. In data set [1] (setting [5]), the “AUC(0,∞)” value came to 0.74 ± 0.82 fg BaP/mL×h, the Cmax is recorded as 0.66 ± 0.38 fg BaP/mL, the T1/2 is recorded as 1.40 ± 0.49 h and the Tmax came out at 2.0 ± 0.7 h. In data set [1] (setting [6]), the “AUC(0,∞)” value stood at 3.40 ± 3.83 fg BaP/mL×h, the Cmax came to 2.32 ± 2.36 fg BaP/mL, the T1/2 is 1.33 ± 0.39 h and the Tmax is given as 1.4 ± 0.7 h.

As for `c1ccc2c(c1)ccc1ccccc12` [Phe, phenanthrene], the Ki on human CYP1A2 stood at 12.6 µM. Further, at human CYP1A2 (Lineweaver-Burk plot), the “type of inhibition of hCYP1A2” value is given as “competitive”.

Take `Cc1cccc2c1ccc1cc(C(C)C)ccc12` [Retene, 7-isopropyl-1-methylphenanthrene]: the mutagenicity result in data set [2] is given as “negative”.

In data set [1] (both, human, in vivo), `c1ccc2c(c1)cc1ccc3cccc4ccc2c1c34` [[^14C]-BaP, benzo[a]pyrene] had a Cl of 3707 ± 2267 L/h and a volume of distribution (Vd) of 17550 ± 9725 L. The same compound had a half-life in data set [1] (both, human, in vivo, T1/2) of 287 ± 267 min. Further, in data set [1] (both, human, in vivo, Tmax), the Tmax was found to be 1.1 ± 1.1 h. In addition, the half-life in data set [1] (both, human, in vivo, po, T1/2 in blood) was 66 ± 66 min. Moreover, in data set [1] (human, in vivo), the AUC is on record as 17.88 ± 9.56 fg BaP/mL×h and the “AUC(0,∞)” value was 17.88 ± 9.56 fg BaP/mL×h.

A word on the Tmax: it is the time at which the peak concentration occurs. As usually defined, the Ki is a measure of affinity in units of concentration, obtained from inhibition or displacement. Read a high Ki as weaker binding. The Vd is the apparent volume that relates the amount in the body to the concentration in plasma or blood. A word on the half-life: it is how long it takes for the measured level to halve.
